Data taken from the supplement of paper PMC5579334.
± gives the standard deviation of the averaged measurements.

Assays:
ST8814 [1] = experiment: drug sensitivity score (DSS, CellTox-Green cytotoxicity, 72 h) (DSS (dimensionless)); higher = more cytotoxic; extreme values may be limits of the assay
Procedure, shortened: (§1)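 For 72 h at 37 °C, MPNST cell lines and primary human Schwann cells were exposed in 384-well plates to five 10-fold compound dilutions. CellTox-Green, added before seeding at a final 1:1000 dilution, gave fluorescence from DNA released by disrupted cells. Signals were scaled to vehicle and positive-control wells, cultures failing plate quality control were left out, and four-parameter logistic fits were applied. Relative IC50 and drug sensitivity score were derived from the fits, with IC50 censored at the top concentration.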

HS-PSS [2] = experiment: as above
Procedure, shortened: as §1

[3] = system: HSC1 (primary human Schwann cells); experiment: as above
Procedure, shortened: as §1

[4] = system: HSC2 (primary human Schwann cells); experiment: as above
Procedure, shortened: as §1

S1507-2 [5] = experiment: as above
Procedure, shortened: as §1

STS26T [6] = experiment: as above
Procedure, shortened: as §1

ST8814 [7] = experiment: % inhibition of CellTiter-Glo viability at highest tested concentration (72 h), relative to DMSO and benzethonium chloride controls; higher = more inhibition
Procedure, shortened: (§2)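 MPNST cell lines and primary human Schwann cells were seeded at 750–1000 cells per well into 384-well plates preprinted with each compound at five concentrations in 10-fold steps, then incubated 72 h at 37 °C, 5% CO2. CellTiter-Glo ATP luminescence gave viability, scaled between vehicle and positive-control wells, with duplicates averaged where present. Curves were fitted with a four-parameter logistic model. Percent inhibition refers to the top concentration, while drug sensitivity score and relative IC50, censored at the top concentration, come from these fits.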

HS-PSS [8] = experiment: as above
Procedure, shortened: as §2

[9] = system: HSC1 (primary human Schwann cells); experiment: as above
Procedure, shortened: as §2

[10] = system: HSC2 (primary human Schwann cells); experiment: as above
Procedure, shortened: as §2

S462 [11] = experiment: as above
Procedure, shortened: as §2

S1507-2 [12] = experiment: as above
Procedure, shortened: as §2

STS26T [13] = experiment: as above
Procedure, shortened: as §2

HS-Sch-2 [14] = experiment: as above
Procedure, shortened: as §2

YST-1 [15] = experiment: as above
Procedure, shortened: as §2

ST8814 [16] = experiment: drug sensitivity score (DSS, CellTiter-Glo viability, 72 h) (DSS (dimensionless)); higher = more sensitive; extreme values may be limits of the assay
Procedure, shortened: as §2

HS-PSS [17] = experiment: as above
Procedure, shortened: as §2

[18] = system: HSC1 (primary human Schwann cells); experiment: as above
Procedure, shortened: as §2

[19] = system: HSC2 (primary human Schwann cells); experiment: as above
Procedure, shortened: as §2

S462 [20] = experiment: as above
Procedure, shortened: as §2

S1507-2 [21] = experiment: as above
Procedure, shortened: as §2

STS26T [22] = experiment: as above
Procedure, shortened: as §2

HS-Sch-2 [23] = experiment: as above
Procedure, shortened: as §2

YST-1 [24] = experiment: as above
Procedure, shortened: as §2

| Structure (SMILES) | drug sensitivity score (ST8814 [1]) | drug sensitivity score (HS-PSS [2]) | drug sensitivity score [3] | drug sensitivity score [4] | drug sensitivity score (S1507-2 [5]) | drug sensitivity score (STS26T [6]) | % inhibition (ST8814 [7]) | % inhibition (HS-PSS [8]) | % inhibition [9] | % inhibition [10] | % inhibition (S462 [11]) | % inhibition (S1507-2 [12]) | % inhibition (STS26T [13]) | % inhibition (HS-Sch-2 [14]) | % inhibition (YST-1 [15]) | drug sensitivity score (ST8814 [16]) | drug sensitivity score (HS-PSS [17]) | drug sensitivity score [18] | drug sensitivity score [19] | drug sensitivity score (S462 [20]) | drug sensitivity score (S1507-2 [21]) | drug sensitivity score (STS26T [22]) | drug sensitivity score (HS-Sch-2 [23]) | drug sensitivity score (YST-1 [24]) |
| --- | --- | --- | --- | --- | --- | --- | --- | --- | --- | --- | --- | --- | --- | --- | --- | --- | --- | --- | --- | --- | --- | --- | --- | --- |
| Cc1cnc(NC(=O)Nc2cc(Br)c(C)cc2OC[C@@H]2CNCCO2)cn1 [Rabusertib] (max concentration tested 1000 nM) | 0 | 0 | 0.0001 | 0 | 1.21 ± 1.4 | 1.88 | 2.25% | 17.4% | 11.3% | 22.3% | 91.37 ± 0.63% | 51.1 ± 10% | 36.4% | 84.7% | 32.8% | 0 | 0.93 | 0.0015 | 1.36 | 5.07 ± 0.2 | 3.39 ± 0.54 | 2.75 | 4.93 | 1.96 |
| CC(C)(C)Cn1c(N)nc2ccc(-c3[nH]c(C(C)(C)C)nc3-c3ccc(F)cc3)nc21 [Ralimetinib] (max concentration tested 10000 nM) | 0 | 0 | 0 | 0 | 0 | 0 | 28.2% | 45.7% | 34.9% | 34% | 13.4 ± 7.5% | 33.8 ± 6.8% | 28.7% | 54.9% | 41.8% | 2.03 | 1.76 | 2.2 | 3.4 | 0.51 ± 0.72 | 2.27 ± 0.73 | 1.33 | 2.8 | 7.83 |
| O=C(c1ccc(OCCN2CCCCC2)cc1)c1c(-c2ccc(O)cc2)sc2cc(O)ccc12 [Raloxifene] (max concentration tested 10000 nM) | 1.85 | 0 | 0 | 0 | 1.4 ± 1.7 | 0.897 | 36.5% | 44.5% | 42.1% | 41.8% | 19.7 ± 3.4% | 54.55 ± 0.068% | 41.3% | 85.8% | 25.5% | 1.9 | 4.8 | 2.17 | 3.34 | 0.649 ± 0.51 | 2.99 ± 0.22 | 1.99 | 7.33 | 1.7 |
| CNC(=O)c1cc(Oc2ccc(NC(=O)Nc3cc(C(C)(C)C)nn3-c3ccc4ncccc4c3)c(F)c2)ccn1 [Rebastinib] (max concentration tested 1000 nM) | 0 | 0 | 0 | 0 | 0 | 0 | -2.38% | -1.59% | 0.317% | -5.07% | -0.0982 ± 1.4% | -4.17 ± 6.4% | -1.27% | -12.3% | 0.76% | 0 | 0 | 0 | 0 | 0 | 0 | 0 | 0 | 0 |
| COc1cc(F)c(F)c(Nc2ccc(I)cc2F)c1NS(=O)(=O)C1(C[C@H](O)CO)CC1 [Refametinib] (max concentration tested 10000 nM) | 8.62 | 0.98 | 0 | 0.276 | 11.1 ± 3.6 | 1.17 | 99.1% | 63.2% | 69.2% | 69% | 94.83 ± 0.55% | 86.7 ± 4.6% | 53% | 75.5% | 17.5% | 14.8 | 5.39 | 8.11 | 10.5 | 14.9 ± 1.8 | 13.8 ± 1.3 | 8.43 | 6.81 | 0.24 |
| CNC(=O)c1cc(Oc2ccc(NC(=O)Nc3ccc(Cl)c(C(F)(F)F)c3)c(F)c2)ccn1 [Regorafenib] (max concentration tested 10000 nM) | 1.04 | 0 | 0 | 0 | 0 | 0.529 | 74.2% | 43% | 73.8% | 78.6% | 80.9 ± 5.1% | 33.7 ± 17% | 49.9% | 84.1% | 73% | 7.57 | 1.9 | 4.61 | 6.19 | 7.19 ± 0.46 | 2.21 ± 1.2 | 4.35 | 4.17 | 6.49 |
| CO[C@H]1C[C@@H]2CC[C@@H](C)[C@@](O)(O2)C(=O)C(=O)N2CCCC[C@H]2C(=O)O[C@H]([C@H](C)C[C@@H]2CC[C@@H](OP(C)(C)=O)[C@H](OC)C2)CC(=O)[C@H](C)/C=C(\C)[C@@H](O)[C@@H](OC)C(=O)[C@H](C)C[C@H](C)/C=C/C=C/C=C/1C [Ridaforolimus] (max concentration tested 100 nM) | 0 | 0 | 0 | 0 | 0 | 0 | 32.1% | 28.6% | 51.5% | 52.6% | 40.4 ± 5.1% | 35.9 ± 0.46% | 48.8% | 31% | 43.6% | 8.41 | 5.02 | 16.8 | 15.8 | 8.13 ± 1.3 | 7.07 ± 0.28 | 13.1 | 4.49 | 9.63 |
| CS(=O)(=O)c1ccc(C2=C(c3ccccc3)C(=O)OC2)cc1 [Rofecoxib] (max concentration tested 10000 nM) | 0 | 0 | 0 | 0 | 0 | 0 | 3.44% | -0.36% | 2.15% | -0.797% | -1.92 ± 0.69% | 3.17 ± 6.5% | -0.415% | -5.42% | 1.11% | 0 | 0 | 0 | 0 | 0 | 0 | 0 | 0 | 0 |
